Experiment [1] concerns the target AMP-activated protein kinase, AMPK. In words: AMP-dependent Kinase enzyme assay. An in vitro enzyme assay that detects ADP turnover that is directly proportional to AMPK activity. This uses naive AMPK that is activated during the assay with MK-8722. The format is functional, Homo sapiens.
In experiment [2] the test system is Schistosoma mansoni. In words: High throughput screening of compounds against Schistosoma mansoni motility. The format is functional. Also noted: dose or concentration left out as unconfirmed.
Experiment [3] relates to Leishmania donovani. In words: Leishmania intramacrophage assay. The experiment is classed as functional, organism-based. The following applies: Leishmania donovani.
The target of experiment [4] is T1, Coenzyme A biosynthesis bifunctional protein CoaBC (Mycobacterium tuberculosis (strain ATCC 25618 / H37Rv), UniProt P9WNZ1).
T1 sequence (P9WNZ1 whole entry): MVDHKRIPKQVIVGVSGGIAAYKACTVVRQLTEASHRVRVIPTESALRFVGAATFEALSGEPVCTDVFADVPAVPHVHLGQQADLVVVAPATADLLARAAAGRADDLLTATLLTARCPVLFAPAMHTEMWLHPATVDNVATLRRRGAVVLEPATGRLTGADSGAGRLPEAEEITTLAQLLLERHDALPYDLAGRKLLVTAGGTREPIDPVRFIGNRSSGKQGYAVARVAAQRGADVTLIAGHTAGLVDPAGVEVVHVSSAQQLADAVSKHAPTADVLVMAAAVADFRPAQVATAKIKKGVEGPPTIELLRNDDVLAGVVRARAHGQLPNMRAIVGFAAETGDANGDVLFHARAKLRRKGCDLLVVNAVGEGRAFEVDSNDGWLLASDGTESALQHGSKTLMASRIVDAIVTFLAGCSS
The experiment can be described thus: Biomol Green assay for MtCoaBC inhibitor, OD650 read. The experiment is classed as functional.

Experiment [5] has as its system Plasmodium falciparum. In words: Calibr Malaria Delayed Death Assay SOP. The experiment is classed as functional, organism-based. The following applies: for IC50: Plasmodium falciparum.
The target of experiment [6] is Polyketide synthase Pks13 (Mycobacterium tuberculosis (strain ATCC 25618 / H37Rv), UniProt I6X8D2). In words: Mycobacterium tuberculosis Polyketide synthase 13 Thioesterase (PKS13). The experiment is classed as functional.
For experiment [7], the target named is T2, Histidine--tRNA ligase (Leishmania infantum, UniProt A4I591).
T2 sequence (A4I591 whole entry): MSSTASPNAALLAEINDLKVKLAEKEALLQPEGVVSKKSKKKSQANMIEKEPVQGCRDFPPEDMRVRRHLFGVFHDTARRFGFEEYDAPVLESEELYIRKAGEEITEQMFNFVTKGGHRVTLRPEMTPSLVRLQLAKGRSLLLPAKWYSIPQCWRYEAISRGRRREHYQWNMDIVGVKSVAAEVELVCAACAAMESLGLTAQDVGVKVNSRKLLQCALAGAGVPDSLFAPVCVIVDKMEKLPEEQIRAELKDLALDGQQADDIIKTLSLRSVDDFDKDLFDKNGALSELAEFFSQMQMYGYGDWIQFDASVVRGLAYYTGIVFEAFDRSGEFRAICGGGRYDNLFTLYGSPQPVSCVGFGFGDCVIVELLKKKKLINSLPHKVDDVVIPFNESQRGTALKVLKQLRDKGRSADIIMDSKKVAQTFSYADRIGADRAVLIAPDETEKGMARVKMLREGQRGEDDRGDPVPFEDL
In words: Leishmania infantum Histidine tRNA synthetase (LdHisRS). The experiment is classed as functional.

Experiment [8] concerns the target ClpP1P2 (Mycobacterium tuberculosis (strain ATCC 25618 / H37Rv), UniProt P9WPC3+P9WPC5). In words: in vitro assay to detect presence of AMC directly proportional to the activity of ClpP1P2. GHDDI collaboration. The experiment is classed as functional.

Values joined by “and” are separate entries in the source; they are usually repeats but may differ in a detail not shown here. Equal entries are not always repeated.

The term pIC50 denotes the negative decadic logarithm of the IC50, by convention in mol/L. One may read the IC50 as the concentration needed to halve the response being measured.

Chain of Polyketide synthase Pks13 (I6X8D2 whole entry): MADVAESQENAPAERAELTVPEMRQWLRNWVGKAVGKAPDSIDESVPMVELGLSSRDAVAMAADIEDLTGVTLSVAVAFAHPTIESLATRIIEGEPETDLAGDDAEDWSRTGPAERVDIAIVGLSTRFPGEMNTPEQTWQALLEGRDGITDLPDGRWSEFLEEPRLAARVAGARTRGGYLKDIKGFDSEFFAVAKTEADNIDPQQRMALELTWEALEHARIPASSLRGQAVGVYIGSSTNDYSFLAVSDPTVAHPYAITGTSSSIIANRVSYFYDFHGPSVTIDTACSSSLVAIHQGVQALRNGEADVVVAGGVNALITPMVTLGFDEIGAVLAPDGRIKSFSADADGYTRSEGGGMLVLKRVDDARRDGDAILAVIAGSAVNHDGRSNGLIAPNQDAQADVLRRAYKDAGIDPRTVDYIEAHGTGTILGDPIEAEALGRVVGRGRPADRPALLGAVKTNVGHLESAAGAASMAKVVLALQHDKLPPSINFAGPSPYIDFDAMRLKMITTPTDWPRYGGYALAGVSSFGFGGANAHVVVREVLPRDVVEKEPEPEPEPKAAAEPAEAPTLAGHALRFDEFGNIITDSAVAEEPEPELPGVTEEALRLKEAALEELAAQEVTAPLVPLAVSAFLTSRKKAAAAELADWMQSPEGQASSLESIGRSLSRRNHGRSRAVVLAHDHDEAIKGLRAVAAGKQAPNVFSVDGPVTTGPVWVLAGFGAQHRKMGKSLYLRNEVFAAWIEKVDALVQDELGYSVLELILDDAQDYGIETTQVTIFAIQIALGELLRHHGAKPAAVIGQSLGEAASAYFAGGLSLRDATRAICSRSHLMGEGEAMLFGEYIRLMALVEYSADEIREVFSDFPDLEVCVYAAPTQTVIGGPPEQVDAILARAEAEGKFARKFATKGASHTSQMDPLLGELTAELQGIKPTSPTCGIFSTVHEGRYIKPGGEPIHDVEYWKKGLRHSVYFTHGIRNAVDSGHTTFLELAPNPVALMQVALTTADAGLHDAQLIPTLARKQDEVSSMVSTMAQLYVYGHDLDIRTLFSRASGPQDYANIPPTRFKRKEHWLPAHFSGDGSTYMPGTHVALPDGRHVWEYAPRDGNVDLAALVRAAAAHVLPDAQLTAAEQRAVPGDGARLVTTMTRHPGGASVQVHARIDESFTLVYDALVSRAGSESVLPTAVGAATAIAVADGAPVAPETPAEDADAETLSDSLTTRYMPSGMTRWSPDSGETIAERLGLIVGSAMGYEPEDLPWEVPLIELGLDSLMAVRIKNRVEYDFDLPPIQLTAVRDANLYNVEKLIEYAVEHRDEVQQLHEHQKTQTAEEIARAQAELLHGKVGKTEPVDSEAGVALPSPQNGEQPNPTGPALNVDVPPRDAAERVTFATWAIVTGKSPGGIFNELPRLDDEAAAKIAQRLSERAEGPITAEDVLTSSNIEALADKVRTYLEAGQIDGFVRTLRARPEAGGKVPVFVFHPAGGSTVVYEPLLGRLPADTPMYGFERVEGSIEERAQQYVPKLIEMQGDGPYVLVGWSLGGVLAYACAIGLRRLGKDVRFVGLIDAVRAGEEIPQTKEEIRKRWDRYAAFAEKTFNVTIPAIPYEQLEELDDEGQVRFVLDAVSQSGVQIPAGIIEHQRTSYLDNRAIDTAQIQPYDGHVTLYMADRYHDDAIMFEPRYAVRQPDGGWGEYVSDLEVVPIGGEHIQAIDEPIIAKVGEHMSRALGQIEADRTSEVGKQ
Chain of ClpP1P2 (P9WPC5 whole entry): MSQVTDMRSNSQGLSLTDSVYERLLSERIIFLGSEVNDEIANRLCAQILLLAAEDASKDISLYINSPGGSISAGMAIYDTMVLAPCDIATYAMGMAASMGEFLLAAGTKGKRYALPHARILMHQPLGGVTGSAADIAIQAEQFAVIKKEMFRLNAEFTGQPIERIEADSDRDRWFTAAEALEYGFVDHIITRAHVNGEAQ
Chain of ClpP1P2 (P9WPC3 whole entry): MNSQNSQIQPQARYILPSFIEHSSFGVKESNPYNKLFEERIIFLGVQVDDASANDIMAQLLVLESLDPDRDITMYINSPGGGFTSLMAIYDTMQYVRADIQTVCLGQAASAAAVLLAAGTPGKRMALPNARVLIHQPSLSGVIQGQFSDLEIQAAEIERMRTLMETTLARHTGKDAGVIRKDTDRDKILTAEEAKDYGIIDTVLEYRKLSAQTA

Turning to `CCc1cc(NCCc2ccc(O)cc2)n2nccc2n1`, the negative-log IC50 (pIC50) in experiment [1] was 4.438 and 4.726. In experiment [2], the “Percent Effect” value is -42.86%.

Regarding `CCc1nnc2n1CCN(C(=O)c1ccc3nc(C)c(C)nc3c1)C2`, the pIC50 in experiment [1] is on record as < 4. The “Percent Effect” value in experiment [2] is given as -15.27%.

Consider `CC(CN1CCN(C)CC1)NC(=O)c1cc(Cl)c2c(c1)OCO2` (stereo not given), for which the negative-log IC50 (pIC50) in experiment [1] is on record as < 4. In experiment [2], the “Percent Effect” value is on record as -52.41%.

As to `CCn1cc(NC(=O)NCCN2CCCCCC2=O)cn1`, the negative logarithm of the IC50 (pIC50) in experiment [1] is < 4.

On to `CCOc1cccc2c1OCC(C(=O)NS(=O)(=O)c1ccc(Cl)cc1)=C2`, for which the pIC50 in experiment [1] is < 4.

Take `Cc1ccsc1C(=O)N1CC(C(=O)NCC2CC2)C2(CCOCC2)C1` (stereo not given): the pIC50 in experiment [1] is < 4.

As for `Cc1cnn(CC2CN(Cc3nnc(C4CC4)o3)CCO2)c1` (stereo not given), the negative-log IC50 (pIC50) in experiment [1] is < 4.

Consider `CCOCC(O)CN1CCN(C(=O)C2CC2)CC1` (stereo not given), for which the negative logarithm of the IC50 (pIC50) in experiment [1] is reported as < 4. In the case of `Cc1nn(C)c(N2CCOCC2)c1CNC(C)c1ccco1` (stereo not given), the pIC50 in experiment [1] was < 4. For the same molecule, the “Percent Effect” value in experiment [2] is -29.3%.

In the case of `CC(C)COc1cncc(N2CCCN(c3ncccn3)CC2)n1`, the pIC50 in experiment [1] is on record as < 4. In the case of `Cc1occc1-c1nc(NC2CCCC2)ncc1-c1ccccn1`, in experiment [1], the pIC50 is recorded as < 4. In the case of `CN(C)c1nc2sc(C(=O)N3CCN(C(=O)OC(C)(C)C)CC3)cc2s1`, the pIC50 in experiment [1] is reported as < 4. Still for that read-out and setting: under `O=C1CC2(CCN(Cc3ccc(-c4ccccc4)s3)C2)C(=O)N1` (stereo not given) stands < 4; under `CN(C)S(=O)(=O)NC1CCCc2c1cnn2-c1ccc(C(C)(C)C)cc1` (stereo not given), < 4. Turning to `C[C@H]1C[C@@H]2CCN(Cc3ccccn3)C[C@H]2O1`, in experiment [1], the pIC50 is listed as < 4. In the case of `FC1(F)CCN(Cc2ccccn2)CC12CCN(c1cccnc1)C2.O=C(O)C(F)(F)F.O=C(O)C(F)(F)F.O=C(O)C(F)(F)F` (stereo not given), in experiment [3], the IC50 was > 50.1 µM. Besides, in experiment [1], the negative-log IC50 (pIC50) is < 4.

With `Cc1ccnc(NC(=O)c2[nH]nc(C(C)C)c2Br)c1`, the 50% inhibitory concentration (IC50) was > 30.2 µM in experiment [4] and 0.23 µM in experiment [5]. The figures for the negative-log IC50 (pIC50) in experiment [1] and in experiment [5] were < 4 and 6.433, respectively. Turning to `Cc1cc(-c2cnc(NC3CC3)nc2-c2ccco2)on1`, the pIC50 in experiment [1] is < 4 and 4.22. Still for that read-out and setting: under `CO[C@@H]1CC[C@H]2[C@H]1OCCN2C(=O)c1ccc(C)o1` stands < 4. Still for that read-out and setting: under `CN(C)S(=O)(=O)N1C[C@H](Oc2cccnc2)[C@H]2OCCC[C@H]21.O=C(O)C(F)(F)F` stands < 4; under `CC(C)OCCCNC(=O)c1ccc(-c2ccco2)[nH]c1=O`, < 4. As to `Cc1nc(N)nc(C)c1CC(=O)N1CCC2(CC1)OCCCC2O` (stereo not given), the 50% inhibitory concentration (IC50) in experiment [4] was > 30.2 µM. Further, the pIC50 in experiment [1] is given as < 4. As for `CC(C)c1n[nH]c(C(=O)Nc2ccccn2)c1Br`, the pIC50 in experiment [1] is < 4; in experiment [5] it was 6.515. This molecule gave a concentration for half-maximal inhibition (IC50) in experiment [5] of 0.24 µM.

In the case of `Cl.Cl.c1ccc(OC[C@@H]2CCC[C@@]23CNCCO3)nc1`, the pIC50 in experiment [1] is < 4. In the case of `Cc1cccc(NC(=O)c2[nH]nc(C(C)C)c2Br)n1`, the concentration for half-maximal inhibition (IC50) in experiment [6] is > 100 µM. For the same molecule, the negative logarithm of the IC50 (pIC50) in experiment [1] is on record as < 4. As for `CC(C)c1cc(NC(=O)c2ccc([S+]([O-])C(C)C)cc2)[nH]n1` (stereo not given), the negative-log IC50 (pIC50) in experiment [1] is 5.533 and 5.17. On to `CCCS(=O)(=O)N1CCN(CCCO)CC1`, for which the pIC50 in experiment [1] is < 4. Same read-out and setting: under `CC(C)c1cc(NC(=O)c2ccncc2)[nH]n1` stands 4.474 and 4.692; under `NCC1Cc2cccc(-c3ccc(O)c(F)c3)c2O1` (stereo not given), 4.898 and 4.913.

For the molecule `CC(C)c1n[nH]c(C(=O)NC(C)c2ccncc2)c1Br` (stereo not given), in experiment [4], the concentration for half-maximal inhibition (IC50) is > 30.2 µM. Besides, in experiment [1], the negative logarithm of the IC50 (pIC50) is < 4. On to `Cc1cc(-c2cnc(NC3CC3)nc2-c2ccoc2)on1`, for which the pIC50 in experiment [1] was < 4.

With `CCc1csc(C2CCCN(C(=O)c3cnn(CC)c3)C2)n1` (stereo not given), in experiment [1], the negative-log IC50 (pIC50) was < 4.

Take `O=C(NCc1ccccc1)c1nnc2ccc(N3CCOCC3)cc2n1`: the concentration for half-maximal inhibition (IC50) in experiment [6] is 16 µM and 24.5 µM. The pIC50 in experiment [1] is < 4. Consider `Cl.Cl.c1cncc(OC[C@@H]2CCC[C@@]23CNCCO3)c1`, for which, in experiment [1], the negative-log IC50 (pIC50) was < 4. On the same count and under the same terms, the result for `CCNC(=O)c1nnc2ccc(N3CCOCC3)cc2n1` reads < 4; that for `CN(C)C(=O)Cc1nc(CN2CCCCC2Cn2cccn2)cs1` (stereo not given), < 4; that for `CC(C)NC(=O)N1CC[C@@H]2CN(Cc3ccccc3)S(=O)(=O)[C@@H]2CC1`, < 4.

Consider `Cc1cc(-c2cnc(NC3CCCC3)nc2-c2ccco2)on1`, for which the negative-log IC50 (pIC50) in experiment [1] is 4.667 and < 4.31.

With `CCOc1cc(C)nc(N2CCN(C(=O)CC)CC2)n1`, the pIC50 in experiment [1] was < 4. The same measure, in the same setting: under `Cn1ncc2c(NC3CCC3)nc(-c3ccncc3)nc21` stands < 4.

With `Cc1cc(-c2cnc(NC3CCCC3)nc2-c2ccoc2)on1`, the negative-log IC50 (pIC50) in experiment [1] is on record as < 4. Still for that read-out and setting: the result for `c1cc(-c2ccc3c(c2)C2(CCNCC2)CC3)ccn1` reads < 4. For the molecule `O=C1CN(C(=O)c2cc3ccc(Br)cc3[nH]2)CCN1`, the negative-log IC50 (pIC50) in experiment [1] was < 4.

Take `c1cc(-c2ccc3c(c2)CCC32CCNCC2)ccn1`: in experiment [7], the 50% inhibitory concentration (IC50) is > 100 µM. Moreover, in experiment [1], the pIC50 was < 4.

For `COc1cc(/C=C/c2ncc(C(=O)O)s2)cc(Cl)c1O`, the 50% inhibitory concentration (IC50) in experiment [6] was 23.7 µM and 18.7 µM; in experiment [4], > 50.1 µM and > 30.2 µM (2×) and 45.3 µM. In addition, the pIC50 in experiment [1] is 4.507 and 4.461. On to `COc1cc(-c2cccc3c2OC(CN)C3)ccc1O` (stereo not given), for which, in experiment [1], the negative logarithm of the IC50 (pIC50) is 4.656 and 4.577. Take `Cc1cc(-c2cnc(NC3CC3)nc2-c2ccoc2C)on1`: the negative-log IC50 (pIC50) in experiment [1] is on record as < 4.

In the case of `COc1ccc(CC2(CO)CCN(c3cc(C#N)ccn3)CC2)cc1`, the IC50 in experiment [8] is > 100 µM. Moreover, the negative logarithm of the IC50 (pIC50) in experiment [1] is recorded as < 4. `CC1(C)Cc2ccccc2-c2nc(NCCO)[nH]c(=O)c21`: in experiment [6], the 50% inhibitory concentration (IC50) was 16.8 µM and 19.4 µM. Also, the pIC50 in experiment [1] was 4.722 and 4.636 and 4.548 and 4.621.

`CC(C)c1cc(C(=O)NCCc2nc(-c3cccnc3)n[nH]2)[nH]n1`: the pIC50 in experiment [1] is 4.471 and 4.569 and 4.528 and 4.581.

As to `COc1ccccc1OCc1cc(C(=O)N2CC(O)C2)n[nH]1`, the negative logarithm of the IC50 (pIC50) in experiment [1] is recorded as < 4. In experiment [2], the “Percent Effect” value was -18.55%. In the case of `CNc1nc(C(=O)N2CCCC(COc3ccc(F)cc3)C2)cs1` (stereo not given), in experiment [1], the pIC50 is given as < 4. For the molecule `Cc1nc(C)n(CC2CCCN(c3ncnc4[nH]ccc34)C2)n1` (stereo not given), the negative logarithm of the IC50 (pIC50) in experiment [1] is 4.827 [middle of 4 runs]. The same measure, in the same setting: under `Cc1cnn(CC2CN(Cc3nnc(-c4occc4C)o3)CCO2)c1` (stereo not given) stands < 4. The same measure, in the same setting: the result for `CC(C)(C)NC(=O)CNc1ncccn1` reads < 4.

The values above are taken from ChEMBL document CHEMBL3988442, “University of Dundee, Small-Polar-MMV Screening Library” (2021).
